# Data from US20240228482A1, “COMPOUNDS, COMPOSITIONS AND METHODS OF TREATING CANCER” (HOTSPOT THERAPEUTICS, INC., priority 2021, published 2024).
# Molecular target: T1, CBL-B (Homo sapiens, UniProt Q13191)
# T1 construct: GST
# Test: CBL-B TR-FRET IC50 screening (E1/E2 ubiquitination, Biotin-Ubiquitin, Anti GST-Tb donor / Streptavidin-d2 acceptor)
# Assay type: biochemical
# Details: CBL-B 10 nM final; 11-point titration from 100 uM; binned A-F; read-out: CBL-B TR-FRET activity IC50
# T1 sequence (Q13191 whole entry): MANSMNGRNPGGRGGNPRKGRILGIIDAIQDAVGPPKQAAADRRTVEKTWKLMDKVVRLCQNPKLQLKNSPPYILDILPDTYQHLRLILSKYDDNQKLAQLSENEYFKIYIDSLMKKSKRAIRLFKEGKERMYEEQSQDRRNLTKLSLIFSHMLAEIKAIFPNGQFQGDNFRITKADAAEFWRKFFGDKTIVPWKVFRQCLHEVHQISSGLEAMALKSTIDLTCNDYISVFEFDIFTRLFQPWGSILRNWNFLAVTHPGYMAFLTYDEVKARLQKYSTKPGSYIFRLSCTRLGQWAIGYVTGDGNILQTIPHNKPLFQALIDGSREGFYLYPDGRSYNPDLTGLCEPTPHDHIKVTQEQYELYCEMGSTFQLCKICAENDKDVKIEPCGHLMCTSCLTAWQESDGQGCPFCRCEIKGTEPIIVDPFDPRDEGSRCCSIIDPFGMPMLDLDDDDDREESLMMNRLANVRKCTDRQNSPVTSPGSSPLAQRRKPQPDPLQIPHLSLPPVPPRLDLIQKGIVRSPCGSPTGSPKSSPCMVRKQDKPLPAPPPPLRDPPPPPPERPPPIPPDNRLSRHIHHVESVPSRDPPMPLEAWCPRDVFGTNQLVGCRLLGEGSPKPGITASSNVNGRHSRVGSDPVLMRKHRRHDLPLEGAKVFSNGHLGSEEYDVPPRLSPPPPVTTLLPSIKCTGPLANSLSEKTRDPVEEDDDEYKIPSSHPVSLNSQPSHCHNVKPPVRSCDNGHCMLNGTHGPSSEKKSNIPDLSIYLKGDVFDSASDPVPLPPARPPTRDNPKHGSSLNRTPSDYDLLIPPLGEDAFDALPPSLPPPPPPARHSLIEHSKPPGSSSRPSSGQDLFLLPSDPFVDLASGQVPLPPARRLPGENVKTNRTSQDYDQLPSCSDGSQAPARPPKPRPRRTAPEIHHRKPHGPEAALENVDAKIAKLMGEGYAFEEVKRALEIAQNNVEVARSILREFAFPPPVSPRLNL
row,IC50 [nM],SMILES
1,3000 to 10000,C[C@H]1CCCN(Cc2cc(C(F)(F)F)c3cn(-c4cccc(N(C)Cc5nncn5C)c4)c(=O)n3c2)C1 [Compound 155]
2,< 100,"[2H]C([2H])([2H])n1cnnc1[C@@H](c1cccc(-n2cc3c(C(F)(F)F)cc(CN4CCC[C@H](C)C4)cn3c2=O)c1)C1CCC1 (single isomer, unassigned) [Compound 135]"
3,< 100,"C[C@H]1CCCN(Cc2cc(C(F)(F)F)c3cn(-c4cccc([C@@H](c5nncn5C)N5CCC5)c4)c(=O)n3c2)C1 (single isomer, unassigned) [Compound 368]"
4,> 10000,"C[C@H]1CCCN(Cc2cc(C(F)(F)F)c3cn(-c4cccc([C@H](c5nncn5C)C5CCOCC5)c4)c(=O)n3c2)C1 (single isomer, unassigned) [Compound 358]"
5,> 10000,"C[C@H]1CCCN(Cc2cc(C(F)(F)F)c3cn(-c4cc([C@H](c5nncn5C)C5CCC5)cc(C(F)(F)F)c4)c(=O)n3c2)C1 (single isomer, unassigned) [Compound 224]"
6,> 10000,Cc1c[nH]nc1[C@@H](c1cccc(-n2cc3c(C(F)(F)F)cc(CN4CCC[C@H](C)C4)cn3c2=O)c1)C1COC1 [Compound 281]
7,< 100,C[C@H]1CCCN(Cc2cc(C(F)(F)F)c3cn(-c4cccc([C@H](c5nncn5C)C5CCC5)c4)c(=O)n3c2)C1 [Compound 85]
8,< 100,"[2H]C([2H])([2H])n1cnnc1[C@]1(c2cccc(-n3cc4c(C(F)(F)F)cc(CN5CCC[C@H](C)C5)cn4c3=O)c2)C[C@@H](C)C1 (single isomer, unassigned) [Compound 214]"
9,< 100,Cn1cnnc1[C@@H](c1cccc(-n2cc3c(C(F)(F)F)cc(CN4CCc5scnc5C4)cn3c2=O)c1)C1CCC1 [Compound 315]
10,> 10000,"COCCn1cc(C)c([C@@H](c2cccc(-n3cc4c(C(F)(F)F)cc(CN5CCC[C@H](C)C5)cn4c3=O)c2)C2CCC2)n1 (single isomer, unassigned) [Compound 335]"
11,100 to 300,O=c1n(-c2cccc([C@H](c3nncs3)C3CCC3)c2)cc2c(C(F)(F)F)cc(CN3CCC(F)CC3)cn12 [Compound 333]
12,< 100,"C[C@H]1CCCCN(Cc2cc(C(F)(F)F)c3cn(-c4cccc([C@H](c5nncn5C)C5CCC5)c4)c(=O)n3c2)C1 (single isomer, unassigned) [Compound 273]"
13,> 10000,"C[C@H]1CCCN(Cc2cc(C(F)(F)F)c3cn(-c4cccc([C@@H](c5nccs5)C5CCC5)c4)c(=O)n3c2)C1 (single isomer, unassigned) [Compound 305]"
14,1000 to 3000,"[2H]C([2H])([2H])n1cnnc1[C@H](c1cccc(-n2cc3c(C(F)(F)F)cc(CN4CCO[C@H](C)C4)cn3c2=O)c1)C1CCC1 (single isomer, unassigned) [Compound 138]"
15,< 100,[2H]c1nnc(CC2(c3cccc(-n4cc5c(C(F)(F)F)cc(CN6CCC[C@H](C)C6)cn5c4=O)c3)COC2)n1C [Compound 209]
16,3000 to 10000,"Cn1cnnc1[C@H](c1cccc(-n2cc3c(C(F)(F)F)cc(CN4CC5(CC5)C4)cn3c2=O)c1)C1CCC1 (single isomer, unassigned) [Compound 164]"
17,> 10000,"C[C@H]1CCCN(Cc2cc(C(F)(F)F)c3cn(-c4cccc([C@H](c5nc(C#N)cs5)C5CCC5)c4)c(=O)n3c2)C1 (single isomer, unassigned) [Compound 370]"

# The remaining lines, values behind:
row,SMILES,IC50 [nM]
1,CN1CC2CCC(C1)N2c1cc(C(F)(F)F)c2cn(-c3cccc([C@H](c4nncn4C)C4CCC4)c3)c(=O)n2c1 [Compound 373],100 to 300
2,[2H]C([2H])([2H])n1cnnc1CC1(c2cccc(-n3cc4c(C(F)(F)F)cc(Br)cn4c3=O)c2)COC1 [Compound 145],100 to 300
3,CN1CCC(O)(c2cc(C(F)(F)F)c3cn(-c4cccc(C5(Cc6nncn6C)COC5)c4)c(=O)n3c2)CC1 [Compound 182],301 to 1000
4,Cn1cnnc1CC1(c2cccc(-n3cc4c(C(F)(F)F)cc(CN5CC[C@@H](C#N)C5)cn4c3=O)c2)COC1 [Compound 24],< 100
5,CC(C)CN(C)Cc1cc(C(F)(F)F)c2cn(-c3cccc([C@H](c4nncn4C)C4CCC4)c3)c(=O)n2c1 [Compound 246],< 100
6,"Cn1cnnc1[C@]1(c2cccc(-n3cc4c(C(F)(F)F)cc(CN5CCC6(CC6)C5)cn4c3=O)c2)C[C@H](C)C1 (single isomer, unassigned) [Compound 222]",< 100
7,Cc1conc1CC1(c2cccc(-n3cc4c(C(F)(F)F)cc(Br)cn4c3=O)c2)COC1 [Compound 168],100 to 300
8,"Cn1cnnc1CC1(c2cccc(-n3cc4c(C(F)(F)F)cc(CN5CCCC(O)CC5)cn4c3=O)c2)COC1 (single isomer, unassigned) [Compound 177]",< 100
9,Cn1cnnc1CC1(c2cccc(-n3cc4c(C(F)(F)F)cc(C5CCNC5)cn4c3=O)c2)COC1 (stereo not shown) [Compound 80],301 to 1000
10,COCCN(C)Cc1cc(C(F)(F)F)c2cn(-c3cccc(C4(Cc5nncn5C)COC4)c3)c(=O)n2c1 [Compound 51],301 to 1000
11,CO[C@@H]1CCCN(Cc2cc(C(F)(F)F)c3cn(-c4cccc(C5(Cc6nncn6C)COC5)c4)c(=O)n3c2)C1 [Compound 124],< 100
12,Cn1cnnc1CC1(c2cccc(-n3cc4c(C(F)(F)F)cc(C5CCN(C(=O)OC(C)(C)C)C5)cn4c3=O)c2)COC1 (stereo not shown) [Compound 65],301 to 1000
13,Cn1cnnc1CC(c1cccc(-n2cc3c(C(F)(F)F)cccn3c2=O)c1)n1cccn1 (stereo not shown) [Compound 142],> 10000

# Same assay, conditions: second part of Table 2 (head 'Patent Cmpd No / Updated Activity'); same CBL-B TR-FRET IC50 bins A-F; read-out: Updated Activity
row,IC50 [nM],SMILES
1,< 100,"C[C@H]1CCCN(Cc2cc(C(F)(F)F)c3cn(-c4cccc([C@H](c5nncn5C)[C@H]5C[C@@H](O)C5)c4)c(=O)n3c2)C1 (single isomer, unassigned) [Compound 437]"
2,< 100,[2H]C([2H])(c1cc(C(F)(F)F)c2cn(-c3cccc([C@H](c4nncn4C)C4CCC4)c3)c(=O)n2c1)N1CCC[C@H](C)C1 [Compound 487]
3,> 10000,"Cc1cnoc1[C@@H](c1cccc(-n2cc3c(C(F)(F)F)cc(CN4CCC[C@H](C)C4)cn3c2=O)c1)C1CCC1 (single isomer, unassigned) [Compound 384]"
4,< 100,[2H]C([2H])(c1cc(C(F)(F)F)c2cn(-c3cccc([C@H](c4nncn4C)C4CCC4)c3)c(=O)n2c1)N1CC2(CC2)C1 [Compound 504]
5,> 10000,"C[C@H]1CCCN(Cc2cc(C(F)(F)F)c3cn(-c4cccc([C@H](c5nncn5C)[C@H]5C[C@H](O)C5)c4)c(=O)n3c2)C1 (single isomer, unassigned) [Compound 435]"
6,< 100,Cn1cnnc1[C@@H](c1cccc(-n2cc3c(C(F)(F)F)cc(CN4CC(C)(C#N)C4)cn3c2=O)c1)C1CCC1 [Compound 564]
7,< 100,C[C@@H]1COCCN1Cc1cc(C(F)(F)F)c2cn(-c3cccc([C@H](c4nncn4C)C4CCC4)c3)c(=O)n2c1 [Compound 489]
8,< 100,"C[C@@H]1CN(Cc2cc(C(F)(F)F)c3cn(-c4cccc([C@H](c5nncn5C)C5CCC5)c4)c(=O)n3c2)CC[C@H]1O (single isomer, unassigned) [Compound 586]"
9,< 100,"C[C@H](c1cc(C(F)(F)F)c2cn(-c3cccc([C@H](c4nncn4C)C4CCC4)c3)c(=O)n2c1)N1CC[C@H](F)C1 (single isomer, unassigned) [Compound 485]"
10,< 100,C[C@@H]1CCCN(Cc2cc(C(F)(F)F)c3cn(-c4cccc([C@H](c5nncn5C)C5CCC5)c4)c(=O)n3c2)C1 [Compound 491]
11,< 100,"COC[C@H]1C[C@H]([C@@H](c2cccc(-n3cc4c(C(F)(F)F)cc(CN5CCC[C@H](C)C5)cn4c3=O)c2)c2nncn2C)C1 (single isomer, unassigned) [Compound 494]"
12,> 10000,"COC1CN([C@@H](c2cccc(-n3cc4c(C(F)(F)F)cc(CN5CCC[C@H](C)C5)cn4c3=O)c2)c2nncn2C)C1 (single isomer, unassigned) [Compound 388]"
13,< 100,"CO[C@H]1C[C@H]([C@@H](c2cccc(-n3cc4c(C(F)(F)F)cc(CN5CCC[C@H](C)C5)cn4c3=O)c2)c2nncn2C)C1 (single isomer, unassigned) [Compound 553]"
14,< 100,"COC(=O)N1CC[C@@H](c2cc(C(F)(F)F)c3cn(-c4cccc([C@H](c5nncn5C)C5CCC5)c4)c(=O)n3c2)C1 (single isomer, unassigned) [Compound 409]"
15,< 100,[2H]C([2H])(c1cc(C(F)(F)F)c2cn(-c3cccc([C@H](c4nncn4C)C4COC4)c3)c(=O)n2c1)N1CCC[C@H](C)C1 [Compound 546]

# Second part, the compound before the results:
row,SMILES,IC50 [nM]
1,"Cn1cnnc1[C@@H](c1cc(-c2nnnn2C)cc(-n2cc3c(C(F)(F)F)cccn3c2=O)c1)C1CCC1 (single isomer, unassigned) [Compound 532]",> 10000
2,Cn1cnnc1C1(c2cccc(-n3cc4c(C(F)(F)F)cc(CN5CCC(C)(F)CC5)cn4c3=O)c2)CCC1 [Compound 471],< 100
3,"Cn1cnnc1C1(c2cccc(-n3cc4c(C(F)(F)F)cc(CN5CCC[C@H](C(F)(F)F)C5)cn4c3=O)c2)CC2(CC2)C1 (single isomer, unassigned) [Compound 480]",< 100
4,Cn1cnnc1[C@@H](c1cccc(-n2cc3c(C(F)(F)F)cc(CN4NC(=O)CC45COC5)cn3c2=O)c1)C1CCC1 [Compound 561],< 100
5,"Cn1cnnc1[C@H](c1cc(-c2cnsc2)cc(-n2cc3c(C(F)(F)F)cccn3c2=O)c1)C1CCC1 (single isomer, unassigned) [Compound 456]",> 10000
6,"Cn1cnnc1[C@H](c1cc(-c2ccncc2)cc(-n2cc3c(C(F)(F)F)cccn3c2=O)c1)C1CCC1 (single isomer, unassigned) [Compound 445]",> 10000
7,Cn1cnnc1C1(c2cccc(-n3cc4c(C(F)(F)F)cc(CN5CCC6(CC6)C5)cn4c3=O)c2)CCC1 [Compound 450],< 100
8,CCN(Cc1cc(C(F)(F)F)c2cn(-c3cccc([C@H](c4nncn4C)C4CCC4)c3)c(=O)n2c1)S(C)(=O)=O [Compound 591],< 100
9,CN(C)C(=O)N(C)Cc1cc(C(F)(F)F)c2cn(-c3cccc([C@H](c4nncn4C)C4CCC4)c3)c(=O)n2c1 [Compound 484],< 100
10,"Cn1cnnc1[C@@H](c1cc(-c2cnsc2)cc(-n2cc3c(C(F)(F)F)cccn3c2=O)c1)C1CCC1 (single isomer, unassigned) [Compound 457]",> 10000
